Data from paper PMC7756341, “Liposomal FRET Assay Identifies Potent Drug‐Like Inhibitors of the Ceramide Transport Protein (CERT)” (Chemistry (Weinheim an Der Bergstrasse, Germany), 2020).
Values joined by “and” are separate entries in the source; they are usually repeats but may differ in a detail not shown here. Identical values can stand only once.

Experiments:
[1] = test system: HeLa cells; assay: Sphingolipid content of treated HeLa cells by quantitative mass spectrometry; format: cell-based; conditions: for Cer16 / Cer18 / Cer20 / Cer22 / Cer24 / Cer24:1 / Cer total / S1P / SM16 / SM18 / SM20 / SM22 / SM24 / SM24:1 / SM total / Sph / ratio total SM/Cer: HeLa, 42h, single replicates; for Cer16 / Cer18 / Cer20 / Cer22 / Cer24 / Cer24:1 / Cer total / S1P / SM16 / SM18 / SM20 / SM22 / SM24 / SM24:1 / SM total / Sph: 500.000 cells per sample
Protocol: 5.2 Cellular experiment for lipidomic analysis
Hela cells were cultured in six well plates (177000 cells per well) under standard growth conditions (DMEM with 4mM L-glutamine, 10% FBS, 1% Penicillin-Streptomycin; CO2 incubator with […]
37°C, 5% CO2). […]
After incubation, […]
the adherent cells were washed twice with ice-cold PBS and harvested by treatment with trypsin.
Cells were counted using a Countess II cell counter ( Invitrogen) and adjusted to 500.000 cells per sample. Each sample was then treated as described below.
6. Details for experimental lipidomics
Cells were subjected to lipid extraction using 1.5 mL methanol/chloroform (2:1, v:v) as described. The extraction solvent contained C17-ceramide (Cer17) and C16 -d31-sphingomyelin (d31-SM16) (both Avanti Polar Lipids, Alabaster, USA) as internal standards. Chromatographic separations were achieved on a 1260 Infinity HPLC (Agilent Technologies, Waldbronn, Germany) equipped with a Poroshell 120 EC-C8 column (3.0 × 150 mm, 2.7 µm; Agilent Technologies). A mobile phase system consisting of water (solvent A) and acetonitrile/methanol (1:1, v:v; solvent B), both acidified with 0.1% formic acid, was used for gradient elution at an initial composition of 40:60 (A:B, v:v) and a flow rate of 0.5 mL/min. MS/MS analyses were carried out using a 6490 triple-quadrupole mass spectrometer (Agilent Technologies) operating in the positive electrospray ionization mode (ESI+). The following ion source parameters were set: sheath gas temperature, 375 °C; sheath gas flow, 12 L/min of nitrogen; nebulizer pressure, 30 psi; drying gas temperature, 200 °C; drying gas flow, 15 L/min of nitrogen; capillary voltage, 4000 V; nozzle voltage, 1500 V; iFunnel high pressure RF voltage, 150 V and iFunnel low pressure RF voltage, 60 V. The following mass transitions were recorded (collision energies of 25 eV for all transitions): ceramides: m/z […]
with MassHunter Software (Agilent Technologies). Significance of differences between two samples was calculated by student’s t -test. Asterisks indicate significant differences between treated and untreated samples: * p<0.05; ** p<0.01; *** p<0.005.
Table S1. Sphingolipid content of treated cells.
(§1) (1 picture or pasted object on this page, not shown here)

[2] = test system: HeLa cells; assay: Cellular localization of BODIPY-ceramide by confocal microscopy; format: cell-based; conditions: 10 µM inhibitor, 2 h
Protocol: 5.1 Cellular Localization of BODIPY-Ceramide
HeLa cells were seeded in 8 well chamber slides (ibidi µ-Slide 8 Well) in RPMI 1640 medium supplemented with 10% (v/v) heat‐inactivated FCS, 1 mM sodium pyruvate and 2 mM L-glutamine at 37 °C and 5% (v/v) CO2 in a humidified incubator. The day after, cells were incubated with inhibitors for 2 h at a concentration of 10 µM or left untreated by replacing the medium with fresh medium supplemented with the respective inhibitors. After 2 h of incubation, BODIPY FL C5-ceramide (Thermo Fisher) was added to a final concentration of 0,25 µM and imaging was immediately done using an LSM 780 laser scanning confocal microscope (Carl Zeiss). No additional wash steps were performed. After 1 h of incubation, DNA was counterstained using Hoechst 33342. For quantification of BODIPY-Ceramide trafficking, cells were transfected with pECFP-GalT the day before inhibitor incubation for the expression of an eCFP fusion of the human galactosyltransferase (GalT; amino acids 1-60), which localizes at the Golgi apparatus. After incubation with the respective inhibitors (see above), cells were imaged at 30 min post addition of BODIPY FL C5-ceramide. Mean BODIPY intensities of regions of interest surrounding eCFP-GalT-positive Golgi stacks were measured (40 cells per biological replicate, 4 biological replicates in total) using ImageJ software (Rasband, W.S., ImageJ, U. S. National Institutes of Health, Bethesda, Maryland, USA, https://imagej.nih.gov/ij/, 1997-2018) and divided by the total BODIPY intensity detected in the field of view. Quantification (Fig 10B) is expressed as normalized intensity ratio (GA/total).
Figure S10. A Uptake of BODIPY FL C5-ceramide to HeLa cells assessed by normalized fluorescence intensity B Distribution of BODIPY FL C5-ceramide by normalized fluorescence […]
as §1
Figure S11. BODIPY-Ceramide trafficking. Confocal images showing distribution of BODIPY FL C5-ceramide (green) and Golgi apparatus costaining (eCFP-GalT; blue) in HeLa cells pretreated with 10 µM of respective inhibitors or left untreated. Figures show representative images (n = 4 biological replicates with 40 cells per biological replicate); scale bars, 10 µm.

CCCC(=O)OCOC(=O)C1=C(C)NC(C)=C(C(=O)OC)C1c1cccc(Cl)c1Cl (stereo not drawn) [6B11, Clevidipine butyrate]
effect on SM/Cer rate ([1]; HeLa cells): dramatically increased
effect on total sphingomyelin ([1]; HeLa cells, 48 hours, serum-reduced medium): no significant changes
Cer16 ([1]; 1 µM): 35,47 pmol/sample and 30,33 pmol/sample and 32,28 pmol/sample
Cer18 ([1]; 1 µM): 3,21 pmol/sample and 3,62 pmol/sample and 2,31 pmol/sample
Cer20 ([1]; 1 µM): 0,82 pmol/sample and 1,87 pmol/sample and 0,75 pmol/sample
Cer22 ([1]; 1 µM): 6,64 pmol/sample and 6,96 pmol/sample and 5,21 pmol/sample
Cer24 ([1]; 1 µM): 21,95 pmol/sample and 20,24 pmol/sample and 18,20 pmol/sample
Cer24:1 ([1]; 1 µM): 41,58 pmol/sample and 36,60 pmol/sample and 35,42 pmol/sample
Cer total ([1]; 1 µM): 109,68 pmol/sample and 101,56 pmol/sample and 92,23 pmol/sample
S1P ([1]; 1 µM): 1,30 pmol/sample (2×) and 1,12 pmol/sample
SM16 ([1]; 1 µM): 1664,57 pmol/sample and 1753,19 pmol/sample and 1827,88 pmol/sample
SM18 ([1]; 1 µM): 49,35 pmol/sample and 48,17 pmol/sample and 50,13 pmol/sample
SM20 ([1]; 1 µM): 16,44 pmol/sample and 17,01 pmol/sample and 16,12 pmol/sample
SM22 ([1]; 1 µM): 97,77 pmol/sample and 109,23 pmol/sample and 104,57 pmol/sample
SM24 ([1]; 1 µM): 148,40 pmol/sample and 164,36 pmol/sample and 157,65 pmol/sample
SM24:1 ([1]; 1 µM): 734,55 pmol/sample and 781,78 pmol/sample and 776,18 pmol/sample
SM total ([1]; 1 µM): 2711,09 pmol/sample and 2873,72 pmol/sample and 2932,53 pmol/sample
Sph ([1]; 1 µM): 2,93 pmol/sample and 3,14 pmol/sample and 2,69 pmol/sample
ratio total SM/Cer ([1]; 1 µM): 29,4 and 26,2 and 28,9
Cer16 ([1]; 2.5 µM): 31,11 pmol/sample and 34,56 pmol/sample and 32,33 pmol/sample
Cer18 ([1]; 2.5 µM): 2,90 pmol/sample and 3,36 pmol/sample and 2,45 pmol/sample
Cer20 ([1]; 2.5 µM): 1,10 pmol/sample and 1,04 pmol/sample and 0,67 pmol/sample
Cer22 ([1]; 2.5 µM): 6,09 pmol/sample and 6,54 pmol/sample and 4,24 pmol/sample
Cer24 ([1]; 2.5 µM): 19,85 pmol/sample and 19,17 pmol/sample and 13,13 pmol/sample
Cer24:1 ([1]; 2.5 µM): 35,16 pmol/sample and 36,98 pmol/sample and 34,53 pmol/sample
Cer total ([1]; 2.5 µM): 96,21 pmol/sample and 101,65 pmol/sample and 87,36 pmol/sample
S1P ([1]; 2.5 µM): 1,11 pmol/sample (2×) and 1,10 pmol/sample
SM16 ([1]; 2.5 µM): 1754,78 pmol/sample and 1844,30 pmol/sample and 1802,54 pmol/sample
SM18 ([1]; 2.5 µM): 52,01 pmol/sample and 48,63 pmol/sample and 47,35 pmol/sample
SM20 ([1]; 2.5 µM): 16,63 pmol/sample and 16,52 pmol/sample and 14,33 pmol/sample
SM22 ([1]; 2.5 µM): 104,73 pmol/sample and 101,64 pmol/sample and 87,68 pmol/sample
SM24 ([1]; 2.5 µM): 164,67 pmol/sample and 154,96 pmol/sample and 126,92 pmol/sample
SM24:1 ([1]; 2.5 µM): 701,62 pmol/sample and 752,78 pmol/sample and 753,00 pmol/sample
SM total ([1]; 2.5 µM): 2780,44 pmol/sample and 2845,61 pmol/sample and 2919,05 pmol/sample
Sph ([1]; 2.5 µM): 3,54 pmol/sample and 2,83 pmol/sample and 2,99 pmol/sample
ratio total SM/Cer ([1]; 2.5 µM): 31,8 and 29,6 and 28,7
Cer16 ([1]; 5 µM): 29,66 pmol/sample and 34,26 pmol/sample and 31,66 pmol/sample
Cer18 ([1]; 5 µM): 2,65 pmol/sample and 3,21 pmol/sample and 2,71 pmol/sample
Cer20 ([1]; 5 µM): 0,74 pmol/sample and 0,90 pmol/sample and 0,79 pmol/sample
Cer22 ([1]; 5 µM): 5,38 pmol/sample and 6,67 pmol/sample and 6,09 pmol/sample
Cer24 ([1]; 5 µM): 17,46 pmol/sample and 20,37 pmol/sample and 20,18 pmol/sample
Cer24:1 ([1]; 5 µM): 36,92 pmol/sample and 40,53 pmol/sample and 39,54 pmol/sample
Cer total ([1]; 5 µM): 92,81 pmol/sample and 105,93 pmol/sample and 100,96 pmol/sample
S1P ([1]; 5 µM): 1,11 pmol/sample and 1,25 pmol/sample and 1,08 pmol/sample
SM16 ([1]; 5 µM): 1762,30 pmol/sample and 1782,59 pmol/sample and 1722,69 pmol/sample
SM18 ([1]; 5 µM): 53,21 pmol/sample and 52,89 pmol/sample and 50,26 pmol/sample
SM20 ([1]; 5 µM): 17,74 pmol/sample and 18,28 pmol/sample and 16,92 pmol/sample
SM22 ([1]; 5 µM): 109,54 pmol/sample and 111,84 pmol/sample and 106,91 pmol/sample
SM24 ([1]; 5 µM): 166,35 pmol/sample and 172,87 pmol/sample and 164,46 pmol/sample
SM24:1 ([1]; 5 µM): 783,66 pmol/sample and 796,71 pmol/sample and 771,15 pmol/sample
SM total ([1]; 5 µM): 2892,80 pmol/sample and 2935,19 pmol/sample and 2832,39 pmol/sample
Sph ([1]; 5 µM): 2,83 pmol/sample and 2,13 pmol/sample and 3,03 pmol/sample
ratio total SM/Cer ([1]; 5 µM): 31,2 and 27,7 and 28,1
effect on intracellular distribution of BODIPY-Cer [2]: only minor effects
